Measured values: patent publication US7265260B2, “Transgenic non-human mammals expressing constitutively activated tyrosine kinase receptors” (Bristol-Myers Squibb Company, priority 2002, dated 2007)

Test system: IGF1R Sal tumor cell line
Assay: Cytotoxicity assay: inhibition of cell proliferation by [3H]-thymidine incorporation
Format: cell-based
Details: IGF-1R-Sal, IGF1R Sal (CD8-IGF1R) cell line from transgenic mouse xenograft tumor, 72 h exposure, read-out: Cytotoxicity Assay IC50 (nM) against IGF1R Sal tumor cell line
Experimental: The proliferative activity of two IGF1R inhibitors in cells was evaluated in vitro against a cell line derived from a xenograft tumor generated in a transgenic mouse, IGF1R Sal (CD8-IGF1R), which was engineered to overexpress the catalytic domain of the human IGF1R. The two IGF1R inhibitors evaluated were a benzimidazole compound as described in WO02/079192 and U.S. application Ser. No. 10/263,448, hereby incorporated by reference, and paclitaxel. Inhibition of cellular proliferation was also determined in a variety of human tumor xenograft cell lines including, Colo205 (colon), Geo (colon), RD1 (rhabdomyosarcoma), H3396 (breast), and MDA PCa2b (prostate). Proliferation was evaluated by incorporation of [^3H]-thymidine into DNA after a 72 hour exposure to reagents. Cells were plated at 1,500 cells/well in 96-well microtiter plates and 24 hours later cells were exposed to a range of drug concentrations. After 72 hours incubation at 37° C., cells were pulsed with 4 μCi/ml [6-^3H] thymidine (Amersham Pharmacia Biotech, UK) for 3 hours, trypsinized, harvested onto UniFilter-96, GF/B plates (PerkinElmer, Boston, Mass.), and scintillation was measured on a TopCount.NXT (Packard, Conn.). Results are expressed as an IC50, which is the drug concentration required to inhibit cell proliferation by 50% to that of untreated control cells.

## CC(=O)O[C@H]1C(=O)[C@@]2(C)[C@H]([C@H](OC(=O)c3ccccc3)[C@]3(O)C[C@H](OC(=O)[C@H](O)[C@@H](NC(=O)c4ccccc4)c4ccccc4)C(C)=C1C3(C)C)[C@]1(OC(C)=O)CO[C@@H]1C[C@@H]2O [paclitaxel]
  IC50: 2.9 nM
